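How tested: cells in 96-well plates exposed to compound for 48 hours at five concentrations. TGI: concentration producing complete growth inhibition.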
The compounds below were run on HCC-2998 colon (assay: NCI tumour cell line growth inhibition, 48 h).

Row | Compound | TGI [µM]
1 | CN(C)CCN=C1c2ccccc2-c2c(=O)n(CCN(C)C)c(O)c3cccc1c23 | 0.494
2 | Nc1nc2[nH]c(=O)cnc2c(=O)[nH]1 | > 125
3 | O=[N+]([O-])c1ccc2[nH]c3c(-c4ccccc4)nccc3c2c1 | 71

These compounds were tested on SK-OV-3 ovarian (assay: NCI tumour cell line growth inhibition, 48 h).

Row | Compound | TGI [µM]
4 | CCCCCOc1ccc(C=Nc2ccc(-c3ccc(N=Cc4ccc(OCCCCC)cc4)c(OC)c3)cc2OC)cc1 | > 100
5 | CN(C)CCN=C1c2ccccc2-c2c(=O)n(CCN(C)C)c(O)c3cccc1c23 | 1.4
6 | Nc1nc2[nH]c(=O)cnc2c(=O)[nH]1 | > 125
7 | O=[N+]([O-])c1ccc2[nH]c3c(-c4ccccc4)nccc3c2c1 | 55.7

Each compound was assayed on SN12C renal (assay: NCI tumour cell line growth inhibition, 48 h).

Row | Compound | TGI [µM]
8 | CCCCCOc1ccc(C=Nc2ccc(-c3ccc(N=Cc4ccc(OCCCCC)cc4)c(OC)c3)cc2OC)cc1 | > 100
9 | CN(C)CCN=C1c2ccccc2-c2c(=O)n(CCN(C)C)c(O)c3cccc1c23 | 0.674
10 | Nc1nc2[nH]c(=O)cnc2c(=O)[nH]1 | > 125
11 | O=[N+]([O-])c1ccc2[nH]c3c(-c4ccccc4)nccc3c2c1 | > 84.6

What follows are compounds tested on SN12K1 renal (assay: NCI tumour cell line growth inhibition, 48 h).

Row | Compound | TGI [µM]
12 | CCCCCOc1ccc(C=Nc2ccc(-c3ccc(N=Cc4ccc(OCCCCC)cc4)c(OC)c3)cc2OC)cc1 | > 100
13 | CN(C)CCN=C1c2ccccc2-c2c(=O)n(CCN(C)C)c(O)c3cccc1c23 | 0.851
14 | Nc1nc2[nH]c(=O)cnc2c(=O)[nH]1 | > 125
15 | O=[N+]([O-])c1ccc2[nH]c3c(-c4ccccc4)nccc3c2c1 | 79.9

Each compound was assayed on SW-620 colon (assay: NCI tumour cell line growth inhibition, 48 h).

Row | Compound | TGI [µM]
16 | CCCCCOc1ccc(C=Nc2ccc(-c3ccc(N=Cc4ccc(OCCCCC)cc4)c(OC)c3)cc2OC)cc1 | > 100
17 | CN(C)CCN=C1c2ccccc2-c2c(=O)n(CCN(C)C)c(O)c3cccc1c23 | 0.493
18 | Nc1nc2[nH]c(=O)cnc2c(=O)[nH]1 | > 125
19 | O=[N+]([O-])c1ccc2[nH]c3c(-c4ccccc4)nccc3c2c1 | > 89.7

What follows are compounds tested on DMS 114 small cell lung (assay: NCI tumour cell line growth inhibition, 48 h).

Row | Compound | TGI [µM]
20 | CCCCCOc1ccc(C=Nc2ccc(-c3ccc(N=Cc4ccc(OCCCCC)cc4)c(OC)c3)cc2OC)cc1 | > 100
21 | CN(C)CCN=C1c2ccccc2-c2c(=O)n(CCN(C)C)c(O)c3cccc1c23 | 0.499
22 | Nc1nc2[nH]c(=O)cnc2c(=O)[nH]1 | > 125
23 | O=[N+]([O-])c1ccc2[nH]c3c(-c4ccccc4)nccc3c2c1 | > 87.2

These compounds were tested on CAKI-1 renal (assay: NCI tumour cell line growth inhibition, 48 h).

Row | Compound | TGI [µM]
24 | CN(C)CCN=C1c2ccccc2-c2c(=O)n(CCN(C)C)c(O)c3cccc1c23 | 2.7
25 | Nc1nc2[nH]c(=O)cnc2c(=O)[nH]1 | > 125

Each compound was assayed on DLD-1 colon (assay: NCI tumour cell line growth inhibition, 48 h).

Row | Compound | TGI [µM]
26 | CCCCCOc1ccc(C=Nc2ccc(-c3ccc(N=Cc4ccc(OCCCCC)cc4)c(OC)c3)cc2OC)cc1 | > 100
27 | CN(C)CCN=C1c2ccccc2-c2c(=O)n(CCN(C)C)c(O)c3cccc1c23 | 0.217
28 | Nc1nc2[nH]c(=O)cnc2c(=O)[nH]1 | > 125
29 | O=[N+]([O-])c1ccc2[nH]c3c(-c4ccccc4)nccc3c2c1 | > 94.3

What follows are compounds tested on A498 renal (assay: NCI tumour cell line growth inhibition, 48 h).

Row | Compound | TGI [µM]
30 | CCCCCOc1ccc(C=Nc2ccc(-c3ccc(N=Cc4ccc(OCCCCC)cc4)c(OC)c3)cc2OC)cc1 | > 100
31 | CN(C)CCN=C1c2ccccc2-c2c(=O)n(CCN(C)C)c(O)c3cccc1c23 | 2.19
32 | Nc1nc2[nH]c(=O)cnc2c(=O)[nH]1 | > 125
33 | O=[N+]([O-])c1ccc2[nH]c3c(-c4ccccc4)nccc3c2c1 | > 100

These compounds were tested on U251 CNS (assay: NCI tumour cell line growth inhibition, 48 h).

Row | Compound | TGI [µM]
34 | CCCCCOc1ccc(C=Nc2ccc(-c3ccc(N=Cc4ccc(OCCCCC)cc4)c(OC)c3)cc2OC)cc1 | > 100
35 | CN(C)CCN=C1c2ccccc2-c2c(=O)n(CCN(C)C)c(O)c3cccc1c23 | 0.752
36 | Nc1nc2[nH]c(=O)cnc2c(=O)[nH]1 | > 125
37 | O=[N+]([O-])c1ccc2[nH]c3c(-c4ccccc4)nccc3c2c1 | > 64.9

The compounds below were run on SK-MEL-5 melanoma (assay: NCI tumour cell line growth inhibition, 48 h).

Row | Compound | TGI [µM]
38 | CCCCCOc1ccc(C=Nc2ccc(-c3ccc(N=Cc4ccc(OCCCCC)cc4)c(OC)c3)cc2OC)cc1 | > 100
39 | CN(C)CCN=C1c2ccccc2-c2c(=O)n(CCN(C)C)c(O)c3cccc1c23 | 1.95
40 | Nc1nc2[nH]c(=O)cnc2c(=O)[nH]1 | > 125
41 | O=[N+]([O-])c1ccc2[nH]c3c(-c4ccccc4)nccc3c2c1 | > 61.1

What follows are compounds tested on OVCAR-3 ovarian (assay: NCI tumour cell line growth inhibition, 48 h).

Row | Compound | TGI [µM]
42 | CCCCCOc1ccc(C=Nc2ccc(-c3ccc(N=Cc4ccc(OCCCCC)cc4)c(OC)c3)cc2OC)cc1 | > 100
43 | CN(C)CCN=C1c2ccccc2-c2c(=O)n(CCN(C)C)c(O)c3cccc1c23 | 0.689
44 | Nc1nc2[nH]c(=O)cnc2c(=O)[nH]1 | > 125
45 | O=[N+]([O-])c1ccc2[nH]c3c(-c4ccccc4)nccc3c2c1 | 39.4

The compounds below were run on NCI-H522 lung (assay: NCI tumour cell line growth inhibition, 48 h).

Row | Compound | TGI [µM]
46 | CCCCCOc1ccc(C=Nc2ccc(-c3ccc(N=Cc4ccc(OCCCCC)cc4)c(OC)c3)cc2OC)cc1 | > 100
47 | CN(C)CCN=C1c2ccccc2-c2c(=O)n(CCN(C)C)c(O)c3cccc1c23 | 0.315
48 | Nc1nc2[nH]c(=O)cnc2c(=O)[nH]1 | > 19.8
49 | O=[N+]([O-])c1ccc2[nH]c3c(-c4ccccc4)nccc3c2c1 | 37.4

What follows are compounds tested on M19-MEL melanoma (assay: NCI tumour cell line growth inhibition, 48 h).

Row | Compound | TGI [µM]
50 | CCCCCOc1ccc(C=Nc2ccc(-c3ccc(N=Cc4ccc(OCCCCC)cc4)c(OC)c3)cc2OC)cc1 | > 100
51 | Nc1nc2[nH]c(=O)cnc2c(=O)[nH]1 | > 85.2
52 | O=[N+]([O-])c1ccc2[nH]c3c(-c4ccccc4)nccc3c2c1 | > 78.4

What follows are compounds tested on RXF 393 renal (assay: NCI tumour cell line growth inhibition, 48 h).

Row | Compound | TGI [µM]
53 | CCCCCOc1ccc(C=Nc2ccc(-c3ccc(N=Cc4ccc(OCCCCC)cc4)c(OC)c3)cc2OC)cc1 | > 100
54 | CN(C)CCN=C1c2ccccc2-c2c(=O)n(CCN(C)C)c(O)c3cccc1c23 | 0.085
55 | Nc1nc2[nH]c(=O)cnc2c(=O)[nH]1 | > 125
56 | O=[N+]([O-])c1ccc2[nH]c3c(-c4ccccc4)nccc3c2c1 | > 96.2

Source: PubChem BioAssay (NCI)
